Among the test systems are CCRF-CEM leukemia; HOP-92 NSCLC; HT29 colon; MALME-3M melanoma; RPMI-8226 leukemia; U251 CNS; UACC-62 melanoma; OVCAR-8 ovarian.
Test in all cases: growth of human tumour cells (NCI), 48 h

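Step 1: Grow cells in 96-well plates. Step 2: Expose to compound for 48 hours at 5 concentrations. Step 3: Interpolate endpoints linearly; if unreached, use highest concentration. GI50: concentration for 50% inhibition of growth. Definition used: TGI = concentration required for complete inhibition of growth.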

As to `COC(=O)c1c2c(c(C)[n+]([O-])c1C)C(=O)C=C(NCc1ccc(Br)cc1)C2=O`, the GI50 with CCRF-CEM leukemia was 0.669 µM; in the assay with HOP-92 NSCLC, 1.74 µM; in the assay with HT29 colon it was 0.339 µM; in the assay on MALME-3M melanoma it was 0.154 µM; in the assay on RPMI-8226 leukemia, 1.47 µM; in the assay with U251 CNS, 0.778 µM. Moreover, the GI50 in the assay on UACC-62 melanoma was 0.0438 µM. In addition, the TGI in the assay with HOP-92 NSCLC was 3.6 µM; in the assay on HT29 colon, above 100 µM; in the assay with MALME-3M melanoma it was 0.389 µM; in the assay on RPMI-8226 leukemia it was 5.1 µM; in the assay on U251 CNS, 2.46 µM; with UACC-62 melanoma, 1.09 µM.
As for `CCCCCCCCCCCCNC(=O)[C@H]1CSC(c2cc(Br)cs2)N1` (some centres undefined), the GI50 was 1.03 µM in the assay on CCRF-CEM leukemia; 4.61 µM in the assay with HOP-92 NSCLC; 1.59 µM with HT29 colon; 3.68 µM in the assay with MALME-3M melanoma; 1.58 µM in the assay with OVCAR-8 ovarian; 1.38 µM in the assay on RPMI-8226 leukemia. Besides, in the assay on U251 CNS, the GI50 was 1.05 µM. The TGI came to 2.51 µM in the assay on CCRF-CEM leukemia; 11.5 µM in the assay with HOP-92 NSCLC; 5.76 µM in the assay on HT29 colon; 10.2 µM with MALME-3M melanoma; 4.67 µM in the assay on OVCAR-8 ovarian; 3.61 µM with RPMI-8226 leukemia. Further, the TGI in the assay on U251 CNS came out at 2.26 µM.
Turning to `CC1=C(C(=O)Nc2cccc(C(F)(F)F)c2)C(c2ccccc2F)C(C(=O)Nc2cccc(C(F)(F)F)c2)=C(C)N1`, the TGI is 12.4 µM with CCRF-CEM leukemia; 9.11 µM in the assay on HOP-92 NSCLC; 11.5 µM with HT29 colon; 21.8 µM in the assay with MALME-3M melanoma; 28.2 µM in the assay on OVCAR-8 ovarian; 10.1 µM with RPMI-8226 leukemia. This molecule also gave a TGI in the assay with U251 CNS of 27.1 µM.
Turning to `O=c1[nH]cc(CO)c(=O)[nH]1`, the GI50 with CCRF-CEM leukemia, in the assay on HOP-92 NSCLC, with HT29 colon, with MALME-3M melanoma, in the assay on OVCAR-8 ovarian and in the assay on U251 CNS was above 100 µM throughout. Besides, the GI50 in the assay on UACC-62 melanoma is above 100 µM. The TGI with CCRF-CEM leukemia, in the assay with HOP-92 NSCLC, in the assay with HT29 colon, in the assay on MALME-3M melanoma, in the assay on OVCAR-8 ovarian and in the assay on U251 CNS was above 100 µM in each case. Further, the TGI in the assay on UACC-62 melanoma was above 100 µM.
As for `Cc1ccc(NC(C(=O)c2ccccc2)c2ccccc2)cc1` (centres undefined), the GI50 in the assay with CCRF-CEM leukemia was 3.98 µM; in the assay on HOP-92 NSCLC, 3.58 µM; with MALME-3M melanoma, 2.42 µM; in the assay with OVCAR-8 ovarian, 3.52 µM; in the assay on RPMI-8226 leukemia, 2.71 µM; in the assay on U251 CNS it was 4.24 µM. Moreover, in the assay on UACC-62 melanoma, the GI50 was 3.93 µM. In addition, the TGI is 51.1 µM in the assay with CCRF-CEM leukemia; 8.95 µM in the assay on HOP-92 NSCLC; 9.52 µM in the assay with MALME-3M melanoma; above 100 µM in the assay on OVCAR-8 ovarian; 14.6 µM in the assay on RPMI-8226 leukemia; 25.1 µM in the assay with U251 CNS. Further, the TGI in the assay on UACC-62 melanoma is above 100 µM.
In the case of `NC(Cc1ccc(O)cc1)C(=O)N/N=C/c1ccc(N(CCCl)CCCl)cc1` (centres undefined), the GI50 in the assay with CCRF-CEM leukemia is 0.231 µM; with HOP-92 NSCLC, 21.4 µM; with HT29 colon, 28.5 µM; with OVCAR-8 ovarian, 5.58 µM; in the assay on RPMI-8226 leukemia it was 10.1 µM; in the assay with U251 CNS it was 27.8 µM. Moreover, the GI50 in the assay on UACC-62 melanoma is 2.69 µM. Also, the TGI with CCRF-CEM leukemia is above 100 µM; in the assay with HOP-92 NSCLC, above 100 µM; with HT29 colon it was above 100 µM; in the assay with OVCAR-8 ovarian, 55 µM; in the assay on RPMI-8226 leukemia it was above 100 µM; in the assay on U251 CNS it was above 100 µM. For the same molecule, the TGI in the assay with UACC-62 melanoma worked out at 27 µM.
In the case of `Nc1ncnc2c1nc(N)n2C1OC(CO)C(O)C1O` (centres undefined), the GI50 was 1.3 µM in the assay on CCRF-CEM leukemia; 0.34 µM in the assay on HOP-92 NSCLC; 0.0589 µM with HT29 colon; 0.63 µM in the assay with OVCAR-8 ovarian; 0.973 µM with RPMI-8226 leukemia; 1.35 µM with U251 CNS. Also, the GI50 in the assay with UACC-62 melanoma is 0.251 µM. In addition, the TGI in the assay on CCRF-CEM leukemia was above 22.9 µM; in the assay with HOP-92 NSCLC, 1.83 µM; in the assay with HT29 colon, 1.31 µM; with OVCAR-8 ovarian, 2.98 µM; in the assay with RPMI-8226 leukemia, 6.48 µM; with U251 CNS, 7.06 µM. In addition, in the assay with UACC-62 melanoma, the TGI was determined as 1.2 µM.
For `O=C1c2ccccc2-c2c1c1c(O)cccc1n2CCCc1ccccc1`, the GI50 in the assay with CCRF-CEM leukemia is 24.1 µM; in the assay on HOP-92 NSCLC, 45.3 µM; in the assay with HT29 colon it was 42.8 µM; with OVCAR-8 ovarian it was 31.7 µM; in the assay with RPMI-8226 leukemia it was 13.7 µM; with U251 CNS, 26.4 µM. Moreover, the GI50 in the assay on UACC-62 melanoma was 22.7 µM. Moreover, the TGI in the assay with CCRF-CEM leukemia was above 100 µM; in the assay on HOP-92 NSCLC, above 100 µM; in the assay on HT29 colon it was above 100 µM; with OVCAR-8 ovarian, above 100 µM; in the assay with RPMI-8226 leukemia it was 51.9 µM; in the assay on U251 CNS it was above 100 µM. Besides, the TGI with UACC-62 melanoma was above 100 µM.

These data come from PubChem BioAssay (NCI).
